Columns and labels:
[1] = molecular target: angiotensin II AT1 receptor; assay: Assay A: Angiotensin II binding activity, rat uterine membrane preparation, 125I-AII displacement
rabbit aortic rings = assay: Assay B: In vitro vascular smooth muscle response for AII (antagonist activity, pA2); format: cell-based; conditions: Oryctolagus cuniculus, two values in a cell = two determinations
How it was run: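 Endothelium-denuded thoracic aortic rings from male New Zealand white rabbits, in oxygenated Krebs at 37° C. under ~1 g tension, gave isometric AII contraction curves (3×10^−10 to 1×10^−5 M).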

pressor response to AII = assay: Assay C: In vivo intragastric pressor assay response for AII antagonists; design: species or system Sprague-Dawley rats; conditions: in vivo pressor response; for inhibition in vivo at 3 mg/kg: po; for inhibition in vivo at 30 mg/kg: read-out: Assay C Inhibition
myocardial fibrosis = conditions: animal models; cited from earlier work
[2] = Rattus norvegicus, 3 mg/kg intragastrically
[3] = Rattus norvegicus, intraduodenal, 30 mg/kg intraduodenally

IC50 [1] [nM] | SMILES | Kb (rabbit aortic rings) [nM] | inhibition in vivo at 3 mg/kg (pressor response to AII; [2]) [%] | Assay C Duration (pressor response to AII; 3 mg/kg intragastrically) [min] | inhibition in vivo at 100 mg/kg (pressor response to AII; Rattus norvegicus, intraduodenal, 100 mg/kg intraduodenally) [%] | Assay C Duration (pressor response to AII; 100 mg/kg intraduodenally) [min] | prevention of myocardial fibrosis (myocardial fibrosis) | inhibition in vivo at 30 mg/kg (pressor response to AII; [3]) [%] | Assay C Duration (pressor response to AII; 30 mg/kg intraduodenally) [min]
16 | CCCCc1nc2cnncc2n1Cc1ccc(-c2ccccc2C(=O)O)cc1 [Compound 119] | 0.617 | 20 | 60 | – | – | – | – | –
4.4 | CCCCc1cn(-c2c(Cl)cccc2Cl)c(=O)n1Cc1ccc(-c2ccccc2-c2nnn[nH]2)nc1 [Compound 232] | 2.57 | 70 | >180 | – | – | – | – | –
20 | CCCCc1cn(C)c(=O)n1Cc1ccc(-c2ccccc2-c2nnn[nH]2)nc1 [Compound 205] | 0.724 | 40 | >180 | – | – | – | – | –
5.4 | CCCCc1cn(C2CCCCC2)c(=O)n1Cc1ccc(-c2ccccc2-c2nnn[nH]2)nc1 [Compound 216] | 1.58 | 50 | >180 | – | – | – | – | –
9.4 | CCCCc1cn([C@H]2[C@H](C)CCC[C@@H]2C)c(=O)n1Cc1ccc(-c2ccccc2-c2nnn[nH]2)nc1 [Compound 247] | 5.5 | 20 | 180 | – | – | – | – | –
6.3 | CCCCc1nc(-c2ccccc2C(C)C)n(Cc2ccc(-c3ccccc3-c3nnn[nH]3)nc2)n1 [Compound 275] | 0.851 | 40 | >180 | – | – | – | – | –
– | CC(=O)S[C@@H]1CC2=CC(=O)CC[C@]2(C)[C@H]2CC[C@@]3(C)[C@@H](CC[C@@]34CCC(=O)O4)[C@H]12 [spironolactone, 17-hydroxy-7α-mercapto-3-oxo-17α-pregn-4-ene-21-carboxylic acid γ-lactone acetate] | – | – | – | – | – | prevents myocardial fibrosis | – | –
9.2 | CCCCn1cc(C2CCCC2)n(Cc2ccc(-c3ccccc3-c3nnn[nH]3)nc2)c1=O [Compound 203] | 3.72 | 50 | >180 | – | – | – | – | –
22 | CCCCc1ncn(Cc2ccc(-c3ccccc3C(=O)O)cc2)n1 [Compound 30] | 18.6 | – | – | – | – | – | 50 | >180
250 | CCCCc1nn(CC(O)c2cc(OC)ccc2OC)c(=O)n1Cc1ccc(-c2ccccc2-c2nn[nH]n2)cc1 (centres unmarked) [Compound 109] | 50.1 | – | – | – | – | – | 50 | 30

SMILES | IC50 [1] [nM] | Kb (rabbit aortic rings) [nM] | inhibition in vivo at 3 mg/kg (pressor response to AII; [2]) [%] | Assay C Duration (pressor response to AII; 3 mg/kg intragastrically) [min] | inhibition in vivo at 100 mg/kg (pressor response to AII; Rattus norvegicus, intraduodenal, 100 mg/kg intraduodenally) [%] | Assay C Duration (pressor response to AII; 100 mg/kg intraduodenally) [min] | prevention of myocardial fibrosis (myocardial fibrosis) | inhibition in vivo at 30 mg/kg (pressor response to AII; [3]) [%] | Assay C Duration (pressor response to AII; 30 mg/kg intraduodenally) [min]
C[C@]12C=CC(=O)C=C1[C@@H]1CC1[C@H]1[C@@H]3CC[C@@]4(CCC(=O)O4)[C@@]3(C)CC3O[C@]312 (some centres unmarked) [Compound 6] | 1300 | 282 | – | – | 90 | 120 | – | – | –

Reference: US20040102423A1, “Spironolactone and angiotensin II antagonist combination therapy for treatment of congestive heart failure” (G.D. Searle & Co., priority 1995, published 2004)
